This passage reports IC50 results from US7285680B2, “β-alanine derivatives and the use thereof” (Ono Pharmaceutical Co., Ltd., priority 2002, dated 2007).

SMILES strings stand for the structures.

In this assay the target is human EDG-2 (Homo sapiens, UniProt Q92633). The assay is described as follows: Evaluation of EDG-2 antagonistic activity by monitoring the change of intracellular calcium ion concentration. Particulars: CHO cells overexpressing human EDG-2 gene; LPA final concentration 100 nM; Fura2-AM intracellular calcium; compound 1 nM to 10 μM. The class given is cell-based. The procedure:
Evaluation of EDG-2 Antagonistic Activity by Monitoring the Change of Intracellular Calcium Ion Concentration
Evaluation of EDG-2 antagonistic activity was carried out by using Chinese hamster ovary (CHO) cells which overexpressed human EDG-2 gene. Those cells were cultured with Ham's F12 medium (GIBCO BRL company No.11765-047) containing 10% FBS (fetal bovine serum), penicillin/streptomycin and blasticidin (5 μg/ml). At first in order to uptake Fura2-AM (Dojindo company No.348-05831) into the cells, cells were incubated for 60 minutes at 37 degrees in Fura2-AM (5 μM) solution [Ham's F12 medium containing 10% FBS, 20 mM HEPES buffer (pH 7.4) and 2.5 mM probenecid (Sigma company No.P-8761)]. […] Plates were set in fluorescent drug screening system (Hamamatsu photonics company, FDSS-2000) and intracellular calcium ion concentration was measured for 30 seconds with no stimulation and then solution of the compound of the present invention represented by formula (I) was added. Five minutes after adding thereto LPA (final concentration: 100 nM) was added, the increase of intracellular calcium ion concentrations before and after the addition of LPA (excitation wave length: […]; fluorescent wave length: 500 nm) were measured every 3 seconds. […]

As usually defined, the IC50 is the concentration at which inhibition is half-maximal.

human EDG-2, sequence (Q92633 whole entry): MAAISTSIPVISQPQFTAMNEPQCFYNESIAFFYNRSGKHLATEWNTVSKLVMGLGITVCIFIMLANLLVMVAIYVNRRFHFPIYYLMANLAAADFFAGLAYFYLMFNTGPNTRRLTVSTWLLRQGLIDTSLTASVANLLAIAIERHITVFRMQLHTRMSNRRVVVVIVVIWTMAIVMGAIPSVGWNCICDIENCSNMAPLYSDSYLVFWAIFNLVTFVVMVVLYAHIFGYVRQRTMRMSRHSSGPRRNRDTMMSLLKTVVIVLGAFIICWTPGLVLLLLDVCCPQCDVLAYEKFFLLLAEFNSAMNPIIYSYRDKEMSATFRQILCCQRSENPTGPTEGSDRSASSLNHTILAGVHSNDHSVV

On to `COc1ccc(OC)c(CCN(CCC(=O)O)C(=O)c2ccccc2-c2ccccc2C(=O)NCc2ccc(Cl)cc2)c1` [Example 3, 3-(N-((2-(2-((4-chlorobenzylamino)carbonyl)phenyl)phenyl)carbonyl)-N-(2-(2,5-dimethoxyphenyl)ethyl)amino)propanoic acid], for which the IC50 turned out to be 0.41 µM. Under `COc1ccc(OC)c(CCN(CCC(=O)O)C(=O)c2ccccc2-c2ccccc2C(=O)NCc2cccnc2)c1` [Example 3(1), 3-(N-((2-(2-((pyridin-3-ylmethylamino)carbonyl)phenyl)phenyl)carbonyl)-N-(2-(2,5-dimethoxyphenyl)ethyl)amino)propanoic acid] stands 0.78 µM.
